The text below walks through data of ChEMBL document CHEMBL5303765, “Data for DCP probe BAY-7081” (2023).

The target in data set [1] is cGMP-inhibited 3',5'-cyclic phosphodiesterase 3B (Homo sapiens, UniProt Q13370). Kind of data set: 3H-cAMP and 3H-cGMP Scintillation Proximity Assay (PDE3B).
Data set [2] addresses 3-hydroxy-3-methylglutaryl-coenzyme A reductase (Homo sapiens) (UniProt P04035). Kind of data set: HMG-CoA Reductase Eurofins Panlabs panel. The following applies: Compound concentration 10.0 uM.
In data set [3] the target is Nitric oxide synthase, inducible (Mus musculus) (UniProt P29477). As to the kind of experiment: Nitric Oxide Synthetase, Inducible (iNOS) Eurofins Panlabs panel. The following applies: Compound concentration 10.0 uM.
Chain of Nitric oxide synthase, inducible (Mus musculus) (P29477 whole entry): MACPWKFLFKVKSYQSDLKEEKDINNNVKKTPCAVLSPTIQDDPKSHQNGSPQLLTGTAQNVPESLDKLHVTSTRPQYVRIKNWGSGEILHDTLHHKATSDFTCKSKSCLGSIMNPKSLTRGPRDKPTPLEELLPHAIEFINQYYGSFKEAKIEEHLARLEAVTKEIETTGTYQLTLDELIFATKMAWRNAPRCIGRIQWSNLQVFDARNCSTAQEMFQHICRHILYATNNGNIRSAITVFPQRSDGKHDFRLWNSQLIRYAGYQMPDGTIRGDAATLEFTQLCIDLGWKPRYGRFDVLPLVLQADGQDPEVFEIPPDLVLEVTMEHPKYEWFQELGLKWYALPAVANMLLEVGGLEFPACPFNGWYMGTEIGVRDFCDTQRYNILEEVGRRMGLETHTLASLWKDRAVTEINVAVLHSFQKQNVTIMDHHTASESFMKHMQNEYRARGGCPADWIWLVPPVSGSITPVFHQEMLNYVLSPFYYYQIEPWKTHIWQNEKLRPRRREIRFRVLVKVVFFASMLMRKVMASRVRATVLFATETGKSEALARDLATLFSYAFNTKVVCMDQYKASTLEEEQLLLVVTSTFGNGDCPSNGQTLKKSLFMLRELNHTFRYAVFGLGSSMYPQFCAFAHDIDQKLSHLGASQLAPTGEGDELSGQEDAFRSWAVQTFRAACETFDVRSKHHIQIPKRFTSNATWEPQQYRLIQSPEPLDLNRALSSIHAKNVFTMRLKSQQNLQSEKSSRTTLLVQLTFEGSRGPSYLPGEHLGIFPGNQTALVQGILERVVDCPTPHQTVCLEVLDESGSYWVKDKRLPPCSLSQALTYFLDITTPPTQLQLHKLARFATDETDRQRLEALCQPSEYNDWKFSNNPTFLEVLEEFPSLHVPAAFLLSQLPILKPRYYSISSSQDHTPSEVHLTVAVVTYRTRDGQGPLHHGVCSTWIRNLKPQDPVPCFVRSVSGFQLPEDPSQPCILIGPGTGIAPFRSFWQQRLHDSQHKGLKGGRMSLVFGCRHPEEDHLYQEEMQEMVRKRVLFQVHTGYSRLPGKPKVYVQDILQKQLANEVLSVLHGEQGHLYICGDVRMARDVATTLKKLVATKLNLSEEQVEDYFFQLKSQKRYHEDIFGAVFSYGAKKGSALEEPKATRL
Data set [4] has as its target Phosphodiesterase 4 (Homo sapiens) (UniProt P27815+Q08499+Q07343+Q08493). As to the kind of experiment: Phosphodiesterase PDE4 Eurofins Panlabs panel. It counts as protein assay. Conditions: Compound concentration 10.0 uM; call rule not given here.
For data set [5], the target named is cGMP-specific 3',5'-cyclic phosphodiesterase (Homo sapiens, UniProt O76074). Kind of data set: Phosphodiesterase PDE5 Eurofins Panlabs panel. Conditions: Compound concentration 10.0 uM.
Data set [6] addresses Beta-1 adrenergic receptor (Homo sapiens) (UniProt P08588). Kind of data set: Adrenergic beta1 Eurofins Panlabs panel. Conditions: Compound concentration 10.0 uM.
Data set [7] concerns the target Type-1 angiotensin II receptor (Homo sapiens) (UniProt P30556). As to the kind of experiment: Angiotensin AT1 Eurofins Panlabs panel. The following applies: Compound concentration 10.0 uM.
Data set [8] has as its target Cannabinoid receptor 2 (Homo sapiens) (UniProt P34972). Kind of data set: Cannabinoid CB2 Eurofins Panlabs panel. Conditions: Compound concentration 10.0 uM.
For data set [9], the target named is GABA-A receptor; anion channel (Rattus norvegicus) (UniProt O09028+P15431+P18506+P18508+P19969+P20236+P23574+P23576+P28471+P28473+P30191+P62813+P63079+P63138+Q91ZM7+Q9ES14). As to the kind of experiment: GABAA, Flunitrazepam, Central Eurofins Panlabs panel. It counts as protein-complex assay. Conditions: Compound concentration 10.0 uM.
Data set [10] deals with Glucocorticoid receptor (Homo sapiens) (UniProt P04150). As to the kind of experiment: Glucocorticoid Eurofins Panlabs panel. Conditions: Compound concentration 10.0 uM.
Chain of Glucocorticoid receptor (Homo sapiens) (P04150 whole entry): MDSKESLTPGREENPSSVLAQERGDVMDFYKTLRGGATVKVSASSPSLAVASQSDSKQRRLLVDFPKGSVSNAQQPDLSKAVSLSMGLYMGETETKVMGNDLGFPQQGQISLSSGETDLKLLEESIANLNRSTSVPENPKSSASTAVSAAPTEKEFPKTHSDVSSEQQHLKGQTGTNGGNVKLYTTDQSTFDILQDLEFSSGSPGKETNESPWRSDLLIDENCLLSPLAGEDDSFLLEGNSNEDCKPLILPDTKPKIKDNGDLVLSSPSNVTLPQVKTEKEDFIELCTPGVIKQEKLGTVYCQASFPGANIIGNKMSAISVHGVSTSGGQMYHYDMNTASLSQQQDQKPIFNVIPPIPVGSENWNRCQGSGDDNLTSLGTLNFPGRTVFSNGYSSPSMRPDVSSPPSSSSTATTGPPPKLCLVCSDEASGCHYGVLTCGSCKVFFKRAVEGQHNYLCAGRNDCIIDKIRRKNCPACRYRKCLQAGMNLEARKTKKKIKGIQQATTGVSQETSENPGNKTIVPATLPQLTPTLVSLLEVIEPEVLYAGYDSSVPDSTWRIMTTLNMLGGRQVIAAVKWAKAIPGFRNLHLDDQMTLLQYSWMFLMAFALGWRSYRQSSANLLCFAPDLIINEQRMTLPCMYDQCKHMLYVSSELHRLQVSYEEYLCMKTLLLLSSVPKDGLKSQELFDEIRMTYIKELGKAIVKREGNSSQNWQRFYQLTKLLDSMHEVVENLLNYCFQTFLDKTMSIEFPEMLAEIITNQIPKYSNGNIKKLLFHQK
The target of data set [11] is T1, Glutamate NMDA receptor (Rattus norvegicus) (UniProt P35439+Q00959+Q00960+Q00961+Q62645+Q8VHN2+Q9R1M7). Kind of data set: Glutamate, NMDA, Agonism Eurofins Panlabs panel. It is filed as protein-complex assay. Conditions: Compound concentration 10.0 uM.
The target of data set [12] is T1, Glutamate NMDA receptor (Rattus norvegicus). Kind of data set: Glutamate, NMDA, Glycine Eurofins Panlabs panel. It counts as protein-complex assay. Conditions: Compound concentration 10.0 uM.
Data set [13] addresses Histamine H1 receptor (Homo sapiens) (UniProt P35367). Kind of data set: Histamine H1 Eurofins Panlabs panel. The following applies: Compound concentration 10.0 uM.
Data set [14] addresses Insulin receptor (Rattus norvegicus) (UniProt P15127). As to the kind of experiment: Insulin Eurofins Panlabs panel. Conditions: Compound concentration 10.0 uM.
For data set [15], the target named is Motilin receptor (Homo sapiens) (UniProt O43193). Kind of data set: Motilin Eurofins Panlabs panel. The following applies: concentration not given here.
The target in data set [16] is Nicotinic Acetylcholine Receptor (Homo sapiens) (UniProt P02708+P07510+P11230+P17787+P30926+P32297+P43681+Q07001+Q15822+Q9UGM1+Q15825+P30532+Q04844+P36544+Q9GZZ6+Q05901). As to the kind of experiment: Nicotinic Acetylcholine Eurofins Panlabs panel. The following applies: Compound concentration 10.0 uM. It is filed as protein-complex assay.
For data set [17], the target named is T2, 5-hydroxytryptamine receptor 1A (Homo sapiens) (UniProt P08908).
T2 sequence (whole entry): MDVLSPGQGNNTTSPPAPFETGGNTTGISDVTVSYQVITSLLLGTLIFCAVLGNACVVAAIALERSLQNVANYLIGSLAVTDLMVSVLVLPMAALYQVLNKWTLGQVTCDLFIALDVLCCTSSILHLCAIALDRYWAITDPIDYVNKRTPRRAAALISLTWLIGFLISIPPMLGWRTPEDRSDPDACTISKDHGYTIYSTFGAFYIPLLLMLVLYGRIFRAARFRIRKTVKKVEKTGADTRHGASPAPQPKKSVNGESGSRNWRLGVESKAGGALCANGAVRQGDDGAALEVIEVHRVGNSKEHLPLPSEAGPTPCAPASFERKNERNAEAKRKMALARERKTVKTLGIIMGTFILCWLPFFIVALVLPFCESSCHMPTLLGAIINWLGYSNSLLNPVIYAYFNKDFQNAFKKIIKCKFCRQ
As to the kind of experiment: Serotonin (5-Hydroxytryptamine) 5-HT1A Eurofins Panlabs panel. Conditions: Compound concentration 10.0 uM.

The target in data set [18] is 5-hydroxytryptamine receptor 2A (Homo sapiens) (UniProt P28223). As to the kind of experiment: Serotonin (5-Hydroxytryptamine) 5-HT2A Eurofins Panlabs panel. Conditions: Compound concentration 10.0 uM.
In data set [19] the target is 5-hydroxytryptamine receptor 2B (Homo sapiens) (UniProt P41595). Kind of data set: Serotonin (5-Hydroxytryptamine) 5-HT2B Eurofins Panlabs panel. The following applies: Compound concentration 10.0 uM.
Chain of 5-hydroxytryptamine receptor 2B (Homo sapiens) (P41595 whole entry): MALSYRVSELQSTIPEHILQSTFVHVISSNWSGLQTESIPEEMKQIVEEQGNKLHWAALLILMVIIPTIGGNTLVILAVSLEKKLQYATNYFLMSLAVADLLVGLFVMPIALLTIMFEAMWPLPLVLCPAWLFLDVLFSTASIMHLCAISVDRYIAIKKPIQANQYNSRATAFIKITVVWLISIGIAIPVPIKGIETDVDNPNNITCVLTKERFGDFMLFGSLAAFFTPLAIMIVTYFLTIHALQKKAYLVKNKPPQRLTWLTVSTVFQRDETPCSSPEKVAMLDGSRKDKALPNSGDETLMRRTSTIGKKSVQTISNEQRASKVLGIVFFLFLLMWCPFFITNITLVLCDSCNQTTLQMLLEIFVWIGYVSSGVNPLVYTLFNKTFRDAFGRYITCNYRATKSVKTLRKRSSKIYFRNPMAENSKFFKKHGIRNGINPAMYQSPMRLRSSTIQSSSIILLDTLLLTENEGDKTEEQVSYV
Data set [20] addresses T3, 5-hydroxytryptamine receptor 3A (Homo sapiens) (UniProt P46098).
T3 sequence (whole entry): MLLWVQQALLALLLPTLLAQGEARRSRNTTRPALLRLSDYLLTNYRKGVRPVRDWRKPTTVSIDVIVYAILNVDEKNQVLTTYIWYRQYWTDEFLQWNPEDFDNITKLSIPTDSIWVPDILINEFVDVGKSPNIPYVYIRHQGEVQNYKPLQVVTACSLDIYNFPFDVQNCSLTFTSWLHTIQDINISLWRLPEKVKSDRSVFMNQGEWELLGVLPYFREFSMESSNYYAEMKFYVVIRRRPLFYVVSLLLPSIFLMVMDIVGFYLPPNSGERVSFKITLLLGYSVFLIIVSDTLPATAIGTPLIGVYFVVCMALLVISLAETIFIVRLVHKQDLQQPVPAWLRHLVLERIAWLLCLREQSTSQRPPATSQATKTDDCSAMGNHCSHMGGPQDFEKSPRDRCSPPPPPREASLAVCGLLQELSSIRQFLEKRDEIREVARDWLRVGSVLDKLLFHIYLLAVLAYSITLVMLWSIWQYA
As to the kind of experiment: Serotonin (5-Hydroxytryptamine) 5-HT3 Eurofins Panlabs panel. The following applies: Compound concentration 10.0 uM.

Data set [21] addresses L-type calcium channel, benzothiazepine site (Rattus norvegicus, UniProt P22002+P27732+Q02485). Kind of data set: Calcium Channel L-Type, Benzothiazepine Eurofins Panlabs panel. It counts as protein assay. Conditions: compound concentration 10 uM.
For data set [22], the target named is hERG (KCNH2) potassium channel (Homo sapiens, UniProt Q12809). As to the kind of experiment: Potassium Channel hERG Eurofins Panlabs panel. Conditions: compound concentration 10 uM.
The target of data set [23] is Prostaglandin E2 receptor EP1 subtype (Homo sapiens) (UniProt P34995). As to the kind of experiment: Prostanoid EP1 Eurofins Panlabs panel. The following applies: Compound concentration 10.0 uM.
Data set [24] concerns the target Voltage-gated sodium channel, site 2 (Rattus norvegicus, UniProt F1LQQ7+O08562+O88420+O88457+P04774+P04775+P08104+P15389+P15390+Q62968). Kind of data set: Sodium Channel, Site 2 Eurofins Panlabs panel. It counts as protein assay. The following applies: compound concentration 10 uM.
Data set [25] addresses Epidermal growth factor receptor (Homo sapiens) (UniProt P00533). Kind of data set: Protein Tyrosine Kinase, EGF Receptor Eurofins Panlabs panel. The following applies: Compound concentration 10.0 uM.
In data set [26] the target is Alpha-1B adrenergic receptor (Homo sapiens) (UniProt P35368). Conditions: Compound concentration 10.0 uM.
Chain of Alpha-1B adrenergic receptor (Homo sapiens) (P35368 whole entry): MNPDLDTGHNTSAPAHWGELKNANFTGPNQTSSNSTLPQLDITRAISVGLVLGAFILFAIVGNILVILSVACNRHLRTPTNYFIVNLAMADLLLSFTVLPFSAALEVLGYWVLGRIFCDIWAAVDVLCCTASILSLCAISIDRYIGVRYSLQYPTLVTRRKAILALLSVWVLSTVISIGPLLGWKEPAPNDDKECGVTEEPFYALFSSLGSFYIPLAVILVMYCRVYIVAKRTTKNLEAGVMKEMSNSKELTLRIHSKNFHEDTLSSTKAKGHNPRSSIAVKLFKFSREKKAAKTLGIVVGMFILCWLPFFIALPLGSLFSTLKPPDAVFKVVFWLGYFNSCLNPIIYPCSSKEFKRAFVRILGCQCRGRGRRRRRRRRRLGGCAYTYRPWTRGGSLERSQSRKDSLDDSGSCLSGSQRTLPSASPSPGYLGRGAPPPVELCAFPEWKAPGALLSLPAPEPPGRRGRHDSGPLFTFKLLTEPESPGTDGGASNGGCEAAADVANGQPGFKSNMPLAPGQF
In another data set the target is Mu-type opioid receptor (Homo sapiens, UniProt P35372). Kind of data set: GPCRScan assay: inhibition of MOR. Also noted: radioligand conc. used [nm] 1.0 – 2.0, parental cells stable HEK.
Chain of Mu-type opioid receptor (P35372 whole entry): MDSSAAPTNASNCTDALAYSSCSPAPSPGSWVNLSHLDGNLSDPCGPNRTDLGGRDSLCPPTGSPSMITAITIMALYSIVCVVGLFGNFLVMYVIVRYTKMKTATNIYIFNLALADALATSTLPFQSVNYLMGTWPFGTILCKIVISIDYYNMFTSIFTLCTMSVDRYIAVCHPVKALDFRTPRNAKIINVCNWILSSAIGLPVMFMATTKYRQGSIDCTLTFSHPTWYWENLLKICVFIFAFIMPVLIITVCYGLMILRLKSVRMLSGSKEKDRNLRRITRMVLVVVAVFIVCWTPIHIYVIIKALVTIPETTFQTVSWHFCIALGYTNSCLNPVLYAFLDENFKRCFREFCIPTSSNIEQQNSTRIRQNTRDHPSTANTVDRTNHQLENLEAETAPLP
Data set [27] deals with Dual specificity calcium/calmodulin-dependent 3',5'-cyclic nucleotide phosphodiesterase 1A (Homo sapiens) (UniProt P54750). Kind of data set: Panlabs assay PDE1A. The arrangement: compound concentration 10 uM. Conditions: at 10 µM.
Chain of Dual specificity calcium/calmodulin-dependent 3',5'-cyclic nucleotide phosphodiesterase 1A (Homo sapiens) (P54750 whole entry): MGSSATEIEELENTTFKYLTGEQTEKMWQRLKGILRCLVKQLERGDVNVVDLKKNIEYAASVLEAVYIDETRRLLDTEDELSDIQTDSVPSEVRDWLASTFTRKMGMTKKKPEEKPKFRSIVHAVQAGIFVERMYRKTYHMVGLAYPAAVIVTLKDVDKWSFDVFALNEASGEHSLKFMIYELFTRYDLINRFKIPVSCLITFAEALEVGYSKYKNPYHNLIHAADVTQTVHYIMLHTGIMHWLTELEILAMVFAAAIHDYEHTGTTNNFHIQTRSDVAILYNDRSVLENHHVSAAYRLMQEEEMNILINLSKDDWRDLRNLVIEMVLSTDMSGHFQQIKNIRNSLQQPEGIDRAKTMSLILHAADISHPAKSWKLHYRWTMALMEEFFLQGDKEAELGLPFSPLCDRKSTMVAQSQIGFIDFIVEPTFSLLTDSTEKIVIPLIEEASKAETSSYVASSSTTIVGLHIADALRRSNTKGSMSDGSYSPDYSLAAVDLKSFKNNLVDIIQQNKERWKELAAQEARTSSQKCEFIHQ
Data set [28] deals with cGMP-inhibited 3',5'-cyclic phosphodiesterase 3A (Homo sapiens) (UniProt Q14432). As to the kind of experiment: Panlabs assay PDE3A. The arrangement: compound concentration 10 uM. The following applies: at 10 µM.
The target in data set [29] is 3',5'-cyclic-AMP phosphodiesterase 4A (Homo sapiens) (UniProt P27815). As to the kind of experiment: Panlabs assay PDE4A1A. Also noted: compound concentration 10 uM. The following applies: at 10 µM.

Structures are written as SMILES.

Chain of 3-hydroxy-3-methylglutaryl-coenzyme A reductase (Homo sapiens) (P04035 whole entry): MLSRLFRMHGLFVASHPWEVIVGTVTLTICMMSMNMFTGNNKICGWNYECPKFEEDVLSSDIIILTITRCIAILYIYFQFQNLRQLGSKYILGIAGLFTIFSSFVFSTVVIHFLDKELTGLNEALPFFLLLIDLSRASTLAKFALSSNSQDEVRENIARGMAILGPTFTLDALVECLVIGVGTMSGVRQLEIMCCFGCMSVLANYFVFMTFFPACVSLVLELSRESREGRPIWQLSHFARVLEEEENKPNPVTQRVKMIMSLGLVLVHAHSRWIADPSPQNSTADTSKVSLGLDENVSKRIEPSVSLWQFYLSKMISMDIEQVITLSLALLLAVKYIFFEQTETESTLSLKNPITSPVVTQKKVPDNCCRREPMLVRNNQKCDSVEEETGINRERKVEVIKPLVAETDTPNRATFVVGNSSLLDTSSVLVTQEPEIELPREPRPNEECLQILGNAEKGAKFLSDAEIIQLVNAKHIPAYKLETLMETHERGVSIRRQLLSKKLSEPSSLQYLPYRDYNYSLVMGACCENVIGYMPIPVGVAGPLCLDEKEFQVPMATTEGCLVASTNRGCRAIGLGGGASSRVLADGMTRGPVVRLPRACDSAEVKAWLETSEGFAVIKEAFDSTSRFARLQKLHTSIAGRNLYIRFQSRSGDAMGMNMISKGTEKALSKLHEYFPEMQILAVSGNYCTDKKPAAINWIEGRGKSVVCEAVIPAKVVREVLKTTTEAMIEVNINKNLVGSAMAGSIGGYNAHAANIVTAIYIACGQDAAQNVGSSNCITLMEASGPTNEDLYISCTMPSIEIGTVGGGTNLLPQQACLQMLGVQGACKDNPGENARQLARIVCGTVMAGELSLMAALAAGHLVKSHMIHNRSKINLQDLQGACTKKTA

For the compound `CCC[C@H]1CNCc2c1[nH]c(=O)c(C#N)c2N1CCC2(CC1)CC2`, the IC50 in data set [1] was > 10 µM (not active). Besides, the inhibition in [2] was 8%; in [3], 6%; in [4], 58%; in [5], 59%; in data set [6] it was 5.2%; in data set [7] it was 5%. The inhibition in data set [8] was -1%; in [9], 16.5%; in data set [10] it was 4.67%; in [11], 6%; in data set [12] it was -2%; in data set [13], 5%. Besides, the inhibition stood at 10% in [14]; 0% in data set [15]; 5% in data set [16]; 10% in data set [17]; 2% in data set [18]; 13% in data set [19]. The inhibition was 3.75% in [20], 8% in data set [23], 9% in data set [25] and 4.43% in data set [26]. For the same compound, the inhibition at 10 µM is 18.5% in [21], 18.5% in data set [22] and -4% in data set [24].

Turning to `CCC[C@@H]1CNCc2c1[nH]c(=O)c(C#N)c2N1CCC2(CC1)CC2`, the results for the Ki on Mu-type opioid receptor (read-out: Ki) and at Mu-type opioid receptor (read-out: pKi (converted)) were 4.71 µM and 4.68 µM, respectively. For the same compound, the inhibition was 7.7% in data set [27], -1.3% in data set [28] and 6.8% in data set [29].
